Among the data in US20240000075A1, “FUNGICIDAL ARYL AMIDINES” (CORTEVA AGRISCIENCE LLC, priority 2020, published 2024) are pest or weed control values, retold here.

One experiment concerns Zymoseptoria tritici. Briefly: Septoria leaf blotch of wheat, whole-plant fungicidal activity (SEPTTR). The experiment is classed as in vivo, Zymoseptoria tritici on wheat plants (variety 'Yuma'). The following applies: read-out: % Disease Control Rating SEPTTR. A digest of the protocol: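 Compounds in acetone, diluted with nine volumes of water containing 110 ppm Triton X-100, were sprayed to run-off on 'Yuma' wheat seedlings at full first-leaf emergence. Spore inoculation was 3 days before (3DC, curative) or 1 day after (1DP, protectant) treatment, then 3 days at 100% RH and greenhouse. First-leaf disease severity (0–100%) was scored relative to untreated plants as percent control.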

In the next experiment the test system is Rhynchosporium commune. Briefly: Leaf blotch of barley, whole-plant fungicidal activity (RHYNSE). The experiment is classed as in vivo. The following applies: 24 h, 1DP (1 day protectant), read-out: % Disease Control Rating RHYNSE. A digest of the protocol:
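Barley cv. 'Harrington' at full first-leaf emergence (7-10 seedlings per pot) was sprayed to run-off with compound in acetone plus nine volumes of water containing 110 ppm Triton X-100, air-dried, then inoculated with spore suspension. Plants spent two days in a dark dew room at 100% RH, then moved to greenhouse for disease development.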

The next experiment relates to Phakopsora pachyrhizi. Briefly: Asian soybean rust, whole-plant fungicidal activity (PHAKPA). The experiment is classed as in vivo. The following applies: read-out: % Disease Control Rating PHAKPA. In outline: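 Ten-day-old 'Williams 82' soybean seedlings sprayed to run-off with compound in acetone/water (1:9, 0.011% Tween-20), air-dried, then inoculated; 24 h dark dew room at 100% RH, then growth room. Disease severity scored 0–100% on sprayed leaves; percent control relative to untreated plants.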

Another experiment has as its system Puccinia triticina. Briefly: Wheat brown rust, whole-plant fungicidal activity (PUCCRT). It is filed as in vivo, Puccinia triticina on wheat plants (variety 'Yuma'). The following applies: 24 h, 1DP (1 day protectant), read-out: % Disease Control Rating PUCCRT. In outline:
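Wheat 'Yuma' seedlings at first-leaf stage sprayed to run-off with compound from acetone stock diluted in nine volumes water containing 110 ppm Triton X-100, then inoculated with Puccinia triticina spores. Held overnight in dark dew room at 100% RH, then greenhouse for disease development.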

Where two headings read alike, the source gives them in different places.

As for `CCCc1ccc(CC(=O)c2cc(C)c(/N=C/N(C)CC)cc2C)cc1` [Compound 64], the pest or weed control at 200 ppm is 50 to 85% in the experiment with Zymoseptoria tritici (24 h, 1DP (1 day protectant)); below 20% with Zymoseptoria tritici (72 h, 3DC (3 day curative)); above 85% in the experiment with Rhynchosporium commune; above 85% in the experiment on Phakopsora pachyrhizi (24 h, 1DP (1 day protectant)); above 85% in the experiment with Phakopsora pachyrhizi (72 h, 3DC (3 day curative)); above 85% in the experiment on Puccinia triticina.

Consider `CC/C(=N\c1cc(C)c(C(=O)CC2CCCC2)cc1C)N(C)CC` [Compound 91], for which the pest or weed control at 200 ppm in the experiment on Zymoseptoria tritici (24 h, 1DP (1 day protectant)) was below 20%; in the experiment on Zymoseptoria tritici (72 h, 3DC (3 day curative)) it was below 20%; in the experiment on Rhynchosporium commune, below 20%; with Phakopsora pachyrhizi (24 h, 1DP (1 day protectant)), above 85%; with Phakopsora pachyrhizi (72 h, 3DC (3 day curative)) it was above 85%; in the experiment with Puccinia triticina, above 85%.

For `CCN(C)/C=N/c1cc(C)c(C(=O)Cc2ccc(C(C)C)cc2)cc1C` [Compound 66], the pest or weed control at 200 ppm was above 85% in the experiment with Zymoseptoria tritici (24 h, 1DP (1 day protectant)); below 20% with Zymoseptoria tritici (72 h, 3DC (3 day curative)); above 85% with Rhynchosporium commune; above 85% in the experiment with Phakopsora pachyrhizi (24 h, 1DP (1 day protectant)); above 85% in the experiment on Phakopsora pachyrhizi (72 h, 3DC (3 day curative)); above 85% with Puccinia triticina.

For the compound `CCN(/C=N/c1cc(C)c(C(=O)CC2CCCC2)cc1C)CC` [Compound 77], the pest or weed control at 200 ppm with Zymoseptoria tritici (24 h, 1DP (1 day protectant)) was below 20%; in the experiment on Zymoseptoria tritici (72 h, 3DC (3 day curative)), below 20%; in the experiment on Rhynchosporium commune, 20 to 50%; in the experiment on Phakopsora pachyrhizi (24 h, 1DP (1 day protectant)), above 85%; in the experiment on Phakopsora pachyrhizi (72 h, 3DC (3 day curative)), above 85%; in the experiment with Puccinia triticina, above 85%.

On to `CCN(C)/C=N/c1cc(C)c(C(=O)Cc2ccc(OC(F)F)cc2)cc1C` [Compound 85], for which the pest or weed control at 200 ppm with Zymoseptoria tritici (24 h, 1DP (1 day protectant)) is above 85%; in the experiment on Zymoseptoria tritici (72 h, 3DC (3 day curative)), 20 to 50%; in the experiment on Rhynchosporium commune, above 85%; in the experiment with Phakopsora pachyrhizi (24 h, 1DP (1 day protectant)) it was above 85%; with Phakopsora pachyrhizi (72 h, 3DC (3 day curative)), above 85%; with Puccinia triticina, above 85%.

Take `CCN(C)/C=N/c1cc(C)c(C(=O)CC(C)(C)C)cc1C` [Compound 21]: the pest or weed control at 200 ppm is 50 to 85% in the experiment on Zymoseptoria tritici (24 h, 1DP (1 day protectant)); below 20% with Zymoseptoria tritici (72 h, 3DC (3 day curative)); above 85% in the experiment with Rhynchosporium commune; above 85% in the experiment with Phakopsora pachyrhizi (24 h, 1DP (1 day protectant)); above 85% with Phakopsora pachyrhizi (72 h, 3DC (3 day curative)); above 85% in the experiment on Puccinia triticina.

Regarding `Cc1cc(C(=O)CC2CCCCC2)c(C)cc1/N=C/N(C)C1CC1` [Compound 60], the pest or weed control at 200 ppm is below 20% in the experiment on Zymoseptoria tritici (24 h, 1DP (1 day protectant)); below 20% in the experiment with Zymoseptoria tritici (72 h, 3DC (3 day curative)); below 20% in the experiment with Rhynchosporium commune; below 20% in the experiment on Phakopsora pachyrhizi (24 h, 1DP (1 day protectant)); below 20% in the experiment on Phakopsora pachyrhizi (72 h, 3DC (3 day curative)); above 85% with Puccinia triticina.

In the case of `Cc1cc(C(=O)Cc2c(F)cc(F)cc2F)c(C)cc1/N=C/N(C)C` [Compound 76], the pest or weed control at 200 ppm in the experiment on Zymoseptoria tritici (24 h, 1DP (1 day protectant)) is below 20%; in the experiment on Zymoseptoria tritici (72 h, 3DC (3 day curative)), below 20%; in the experiment on Rhynchosporium commune it was below 20%; in the experiment with Phakopsora pachyrhizi (24 h, 1DP (1 day protectant)), above 85%; in the experiment with Puccinia triticina, above 85%.

`Cc1cc(C(=O)CC2CCCCC2)c(C)cc1/N=C(\S)N1CCCC1` [Compound 49]: the pest or weed control at 200 ppm with Zymoseptoria tritici (24 h, 1DP (1 day protectant)) is 20 to 50%; with Zymoseptoria tritici (72 h, 3DC (3 day curative)), below 20%; in the experiment on Rhynchosporium commune, below 20%; with Phakopsora pachyrhizi (24 h, 1DP (1 day protectant)) it was above 85%; in the experiment on Phakopsora pachyrhizi (72 h, 3DC (3 day curative)), 50 to 85%; in the experiment on Puccinia triticina it was above 85%.

Regarding `CCN(C)/C=N/c1cc(C)c(C(=O)Cc2ccc(Cl)cc2F)cc1C` [Compound 32], the pest or weed control at 200 ppm in the experiment with Zymoseptoria tritici (24 h, 1DP (1 day protectant)) was above 85%; in the experiment with Zymoseptoria tritici (72 h, 3DC (3 day curative)), below 20%; in the experiment on Rhynchosporium commune, above 85%; in the experiment on Phakopsora pachyrhizi (24 h, 1DP (1 day protectant)) it was above 85%; with Phakopsora pachyrhizi (72 h, 3DC (3 day curative)), above 85%; in the experiment on Puccinia triticina, above 85%.

On to `CCN(C)/C=N/c1cc(C)c(C(=O)Cc2ccc(C)cc2C)cc1C` [Compound 62], for which the pest or weed control at 200 ppm is above 85% with Zymoseptoria tritici (24 h, 1DP (1 day protectant)); 50 to 85% in the experiment with Zymoseptoria tritici (72 h, 3DC (3 day curative)); above 85% in the experiment on Rhynchosporium commune; above 85% in the experiment on Phakopsora pachyrhizi (24 h, 1DP (1 day protectant)); 20 to 50% in the experiment with Phakopsora pachyrhizi (72 h, 3DC (3 day curative)); above 85% in the experiment on Puccinia triticina.

Turning to `CCN(C)/C=N/c1cc(OC)c(C(=O)Cc2c(F)cc(F)cc2F)cc1C` [Compound 37], the pest or weed control at 200 ppm with Zymoseptoria tritici (24 h, 1DP (1 day protectant)) was above 85%; in the experiment on Zymoseptoria tritici (72 h, 3DC (3 day curative)), 50 to 85%; with Rhynchosporium commune it was below 20%; in the experiment with Phakopsora pachyrhizi (24 h, 1DP (1 day protectant)), above 85%; in the experiment on Phakopsora pachyrhizi (72 h, 3DC (3 day curative)) it was above 85%; in the experiment with Puccinia triticina it was above 85%.

In the case of `CCN(C)/C=N/c1cc(C)c(C(=O)C2CCC2)cc1C` [Compound 25], the pest or weed control at 200 ppm with Zymoseptoria tritici (24 h, 1DP (1 day protectant)) was 20 to 50%; in the experiment with Zymoseptoria tritici (72 h, 3DC (3 day curative)), below 20%; in the experiment on Rhynchosporium commune, above 85%; with Phakopsora pachyrhizi (24 h, 1DP (1 day protectant)) it was above 85%; in the experiment on Phakopsora pachyrhizi (72 h, 3DC (3 day curative)), above 85%; with Puccinia triticina, above 85%.

Consider `CCc1cccc(CC(=O)c2cc(C)c(/N=C/N(C)CC)cc2C)c1` [Compound 70], for which the pest or weed control at 200 ppm was 50 to 85% in the experiment with Zymoseptoria tritici (24 h, 1DP (1 day protectant)); below 20% in the experiment on Zymoseptoria tritici (72 h, 3DC (3 day curative)); above 85% in the experiment on Rhynchosporium commune; above 85% in the experiment on Phakopsora pachyrhizi (24 h, 1DP (1 day protectant)); above 85% with Phakopsora pachyrhizi (72 h, 3DC (3 day curative)); above 85% with Puccinia triticina.

For the compound `Cc1cc(C(=O)CC2CCCCC2)c(C)cc1/N=C(\S)N(C)CC(F)(F)F` [Compound 46], the pest or weed control at 200 ppm was below 20% with Zymoseptoria tritici (24 h, 1DP (1 day protectant)); below 20% in the experiment with Zymoseptoria tritici (72 h, 3DC (3 day curative)); below 20% with Rhynchosporium commune; 20 to 50% in the experiment on Phakopsora pachyrhizi (24 h, 1DP (1 day protectant)); below 20% with Phakopsora pachyrhizi (72 h, 3DC (3 day curative)); below 20% in the experiment with Puccinia triticina.

As to `Cc1cc(C(=O)CC2CCCCC2)c(C)cc1/N=C(\S)N(C)Cc1ccccc1` [Compound 53], the pest or weed control at 200 ppm with Zymoseptoria tritici (24 h, 1DP (1 day protectant)) was below 20%; in the experiment with Zymoseptoria tritici (72 h, 3DC (3 day curative)) it was below 20%; with Rhynchosporium commune, below 20%; in the experiment with Phakopsora pachyrhizi (24 h, 1DP (1 day protectant)), below 20%; in the experiment on Phakopsora pachyrhizi (72 h, 3DC (3 day curative)), below 20%; with Puccinia triticina, below 20%.

Regarding `CCN(C)/C=N/c1cc(C)c(C(=O)CC2CCC2)cc1C` [Compound 27], the pest or weed control at 200 ppm in the experiment on Zymoseptoria tritici (24 h, 1DP (1 day protectant)) was above 85%; in the experiment with Zymoseptoria tritici (72 h, 3DC (3 day curative)), 50 to 85%; in the experiment with Rhynchosporium commune it was above 85%; with Phakopsora pachyrhizi (24 h, 1DP (1 day protectant)), above 85%; in the experiment with Phakopsora pachyrhizi (72 h, 3DC (3 day curative)) it was above 85%; with Puccinia triticina it was above 85%.

In the case of `CCN(C)/C=N/c1cc(C)c(C(=O)CCC(C)C)cc1C` [Compound 22], the pest or weed control at 200 ppm with Zymoseptoria tritici (24 h, 1DP (1 day protectant)) is below 20%; in the experiment with Zymoseptoria tritici (72 h, 3DC (3 day curative)), below 20%; in the experiment on Rhynchosporium commune it was above 85%; with Phakopsora pachyrhizi (24 h, 1DP (1 day protectant)), above 85%; with Phakopsora pachyrhizi (72 h, 3DC (3 day curative)), above 85%; in the experiment with Puccinia triticina, above 85%.

Take `CCN(/C=N/c1cc(C)c(C(=O)Cc2c(F)cc(F)cc2F)cc1C)CC` [Compound 78]: the pest or weed control at 200 ppm in the experiment with Zymoseptoria tritici (24 h, 1DP (1 day protectant)) is below 20%; with Zymoseptoria tritici (72 h, 3DC (3 day curative)) it was below 20%; with Rhynchosporium commune, below 20%; in the experiment on Phakopsora pachyrhizi (24 h, 1DP (1 day protectant)), above 85%; in the experiment on Phakopsora pachyrhizi (72 h, 3DC (3 day curative)), above 85%; with Puccinia triticina it was above 85%.
